{"source": "patent US9187490B2", "about": "“Dimeric IAP inhibitors” (TetraLogic Pharmaceuticals Corporation, priority 2005, dated 2015)", "key": {"T98G cells": {"test_system": "T98G cells", "assay": "Cytotoxicity synergy study with topoisomerase inhibitors", "type": "cell-based", "excerpt": "The highest amount of synergy is 50-60% more cell death than would be expected by adding together the cytotoxicity of each compound alone. […] The total synergistic volume was 457, with the greatest synergism being about 30%-40% more cell death than would be expected by adding together the individual Smac and topotecan cytotoxicities, between Entry 1 and a topoismerase inhibitor, such as topotecan.\nTo further assess potential drug-drug interactions a matrix of the permutations of two-fold serial dilutions of each drug and a Snac mimetic were tested as well as the activity of each compound alone using a program called MacSynergy II (Prichard, M. N., K. R. Aseltine, and C. Shipman, Jr. 1993. MacSynergy II. User's manual. Univ. of Michigan, Ann Arbor). The synergy with paclitaxel and the Smac peptidomimetic Entry 122 in OVCAR3 cells was tested. The highest amount of synergy detected is 10-20% which indicates greater cell death than would be expected by adding together the cytotoxicity of either compound alone."}, "MDA-MB-231 cells [1]": {"test_system": "MDA-MB-231 cells", "assay": "Colony formation assay with and without TRAIL", "type": "cell-based", "conditions": "MDA-MB-231, in combination with TRAIL", "procedure": "The ability of cells to form viable colonies was analyzed by adding various concentrations of the compound in the presence and absence of 0.4 ng/ml of TRAIL. Briefly, cells are seeded at 100 cells per well in a 12 well format in 2 ml of growth medium. The medium is removed after twenty-four hours and replaced with Smac mimetics at various concentrations in growth medium with 1% DMSO. After 72 hours on test, the concentrations are removed and replaced with 2 ml. of growth medium. The plates are returned to the incubator for 7-10 days at which time the colonies have multiplied to at least 10 cells per colony which can be counted by eye. The plates are stained with a 0.01% crystal violet solution (wt:vol. in H2O) for thirty minutes. The plates are washed with tap water to remove any residual crystal violet, dried and the colonies are counted. Inhibition data were analyzed using the sigmoidal dose-response (variable slope) equation in GraphPad Prism (GraphPad Software, San Diego, Calif.). The 50% inhibitory concentration (EC50) was the drug concentration that decreased the […] by 50% relative to control samples without drug."}, "MDA-MB-231 cells [2]": {"test_system": "MDA-MB-231 cells", "assay": "Cell proliferation (MTT assay) with and without TRAIL", "type": "cell-based", "conditions": "MDA-MB-231, MTT, FIG. 4"}, "XIAP-BIR3": {"target": "T1, XIAP-BIR3 (Homo sapiens, UniProt P98170)", "T1 construct": "40 nM of XIAP-BIR3 for 15 min at RT", "T1 sequence (P98170 241-356 limits assumed)": "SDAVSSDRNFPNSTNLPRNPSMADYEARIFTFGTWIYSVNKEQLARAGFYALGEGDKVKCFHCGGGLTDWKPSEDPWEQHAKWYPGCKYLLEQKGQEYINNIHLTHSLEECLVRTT", "assay": "XIAP BIR-3 fluorescence polarization binding assay", "conditions": "read-out: KD Range", "procedure": "Following incubation, the polarization values (mP) were measured on a Victor^2V using a 485 nm excitation filter and a 520 nm emission filter. IC50 values were determined from the plot using nonlinear least-squares analysis using GraphPad Prism."}, "[3]": {"assay": "Half life after single intravenous dose in rat", "conditions": "in vivo, single IV dose 1 mg/kg, FIG. 2, read-out: terminal elimination half life (converted)", "procedure": "The IV dose for each Smac mimetic was 1 mg/kg."}, "MRC-5 cells": {"test_system": "MRC-5 cells", "assay": "72 hour MTT assay, normal cell control MRC-5", "type": "cell-based", "conditions": "MRC-5 normal diploid cell line, FIG. 3", "procedure": "(§1) A 72 hour MTT assay, as previously described by Hansen, M. B., Nielsen, S. E., and Berg, K. ((1989) J. Immunol. Methods 119, 203-210) and incorporated herein by reference in its entirety, was used to differentiate between a specific versus non-specific effect on cell killing by Smac mimetics. Briefly, SK-OV-3 cells were seeded in 96-well plates in McCoy's medium containing 10% fetal bovine serum […] (20,000 per well) and incubated overnight at 37 C. […] 50 microliters of 5 mg/mL MTT reagent was then added to each well and the plates were incubated at 37° C. for 3 hours. At the end of the incubation period, 50 microliters of DMSO was added to each well to dissolve cells and the optical density (OD) of the wells was measured using a microplate reader (Victor^2 1420, Wallac, Finland) at 535 nm. Cell survival (CS) was calculated by the following equation CS=(OD treated well/mean OD control wells)×100%\nSmac mimetic Entry 116 was tested using an ovarian cancer cell line, SK-OV-3, and MRC-5 cells were used as a normal cell control."}, "SK-OV-3 cells": {"test_system": "SK-OV-3 cells", "assay": "72 hour MTT cell survival assay, SK-OV-3", "type": "cell-based", "conditions": "SK-OV-3 ovarian cancer cell line, FIG. 3", "procedure": "as §1\nThe EC50, defined as the drug concentration that results in 50% CS, was derived by calculating the point where the dose-response curve crosses the 50% CS point using GraphPad Prism."}, "[4]": {"conditions": "with topotecan and camptothecin"}}, "note": "Where two headings read alike, the source gives them in different places."}
{"compound": "CC(N)C(=O)NC(C(=O)N1CCCC1Cc1c(-c2ccc(-c3oc4ccccc4c3CC3CCCN3C(=O)C(NC(=O)C(C)N)C(C)C)cc2)oc2ccccc12)C(C)C", "note": "(single isomer, unassigned) [Entry 1]", "values": [{"measurement": "total synergistic volume", "setting": "T98G cells; with a topoisomerase inhibitor such as topotecan", "value": 457}, {"measurement": "greatest synergism, more cell death than expected by adding the individual cytotoxicities", "setting": "T98G cells; with topotecan", "value": "30%-40%"}, {"measurement": "highest amount of synergy, more cell death than expected by adding the cytotoxicity of each compound alone", "setting": "T98G cells; [4]", "value": "50-60%"}, {"measurement": "synergy with topoisomerase inhibitors", "setting": "T98G cells; [4]", "value": "act synergistically"}, {"measurement": "increase in the cell killing as detected by loss in colony formation", "setting": "MDA-MB-231 cells [1]", "value": 100, "unit": "fold"}, {"measurement": "increase in the antiproliferative effect in combination with TRAIL", "setting": "MDA-MB-231 cells [2]; in combination with TRAIL", "value": 1000, "unit": "fold"}, {"measurement": "antiproliferative effect, Smac mimetic alone", "setting": "MDA-MB-231 cells [2]; without TRAIL", "value": "resistant"}, {"measurement": "Kd", "setting": "XIAP-BIR3; 5 nM AbuRPF-K(5-Fam)-NH2, 40 nM XIAP-BIR3, 15 min RT, pH 7.5", "value": "< 100", "unit": "nM"}, {"measurement": "half-life", "setting": "[3]", "value": "~6", "unit": "h"}]}
{"compound": "CN[C@@H](C)C(=O)N[C@H](C(=O)N1C[C@@H](O)C[C@H]1Cc1c(-c2[nH]c3cc(F)ccc3c2C[C@@H]2C[C@H](O)CN2C(=O)[C@@H](NC(=O)[C@H](C)NC)[C@@H](C)OC)[nH]c2cc(F)ccc12)[C@@H](C)OC", "note": "[Entry 116]", "values": [{"measurement": "effect on normal (non-tumorigenic) cells", "setting": "MRC-5 cells", "value": "unaffected"}, {"measurement": "Kd", "setting": "XIAP-BIR3; Example 7 series", "value": "< 100", "unit": "nM"}, {"measurement": "more effective at killing tumor cells than negative controls", "setting": "SK-OV-3 cells", "value": "100,000 ×"}]}
